# Legend:
# rosacea = conditions: BPO as the sole active agent; cited from earlier work
# [1] = test system: inflammatory lesions (papules, pustules) of patients with papulopustular rosacea; assay: Inflammatory lesion count change from baseline, 12-week vehicle-controlled study of E-BPO cream; format: in vivo, human
# Description: (§1) Description: A multi-center, double-blind, randomized, vehicle-controlled, dose-range study of encapsulated 5% benzoyl peroxide (E-BPO) Cream and vehicle cream was performed to assess the efficacy and safety of E-BPO compared to vehicle. Study duration was 12 weeks and included approximately 350 male and female patients afflicted with papulopustular rosacea. Patients were at least 18 years of age, and met the inclusion/exclusion criteria described herein.
# (§2) Dosing: Patients were randomized in a 2:1 ratio to the study product or vehicle treatment group, respectively. […]
# (§3) Patients were admitted into the study after meeting all inclusion/exclusion criteria, including a clinical diagnosis of rosacea and after written informed consent has been obtained. […] At each visit, a 5-point IGA scale of rosacea; rosacea erythema, and telangiectasia; and inflammatory (papules, pustules) lesion counts were performed and recorded.
# (§4) Evaluation of efficacy: The first application of the test product was applied at the investigational site at the end of the Baseline visit (Day 0) under the supervision and instruction of the designated investigational site staff. […] The evaluator also assessed local application site irritation (dryness, scaling, pruritus, stinging and burning) at Baseline and Weeks 2, 4, 8 and 12 (end of study). […]
# [2] = test system: patients afflicted with papulopustular rosacea; assay: IGA success (2-grade improvement to clear or almost clear), 12-week double-blind vehicle-controlled study of E-BPO cream; format: in vivo, human; conditions: four weeks
# Description: as §1, §2, §3, §4
compound,measurement,setting,value
"O=C(OOC(=O)c1ccccc1)c1ccccc1 [BPO, Benzoyl peroxide]",response of lesions,rosacea,unresponsive
same,decrease in inflammatory lesions relative to the effect observed after treatment with vehicle cream,[1]; after at least 12 weeks of treatment,more than 1.5 x
same,decrease in inflammatory lesions,"[1]; after only 2 weeks of treatment, on average",about 40%
same,success in IGA relative to the effect observed after treatment with SOOLANTRA,[2],more than twice

# From US20230106220A1, “METHOD FOR TREATMENT OF ROSACEA” (Sol-Gel Technologies Ltd., priority 2019, published 2023)
